Tested on: G-401 tumor spheroids, viability % test/control
Test: Anticancer human tumor G-401 cell line growth inhibition;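 note: spheroids exposed to compound for 7 days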;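 for viability, T/C: 100% = DMSO vehicle-treated spheroids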
Conditions: spheroids with HUVEC and MSC; for IC50: curve of first compound; for viability, T/C: stronger effect = lower value
Outline: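 Complex spheroids of malignant cells with endothelial cells and mesenchymal stem cells; agents alone or combined, from near clinical Cmax (or 10 microM if unknown) down in half-log steps, 0.25% DMSO final.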

[1] = second compound 0.003 µM, first compound 0.0316 µM
[2] = second compound 0.003 µM, first compound 0.1 µM
[3] = second compound 0.003 µM, first compound 0.316 µM
[4] = second compound 0.003 µM, first compound 1 µM
[5] = second compound 0.003 µM, first compound 3.16 µM
[6] = second compound 0.003 µM, first compound 10 µM
[7] = second compound 0.00949 µM, first compound 0.0316 µM
[8] = second compound 0.00949 µM, first compound 0.1 µM
[9] = second compound 0.00949 µM, first compound 0.316 µM
[10] = second compound 0.00949 µM, first compound 1 µM
[11] = second compound 0.00949 µM, first compound 3.16 µM
[12] = second compound 0.00949 µM, first compound 10 µM
[13] = second compound 0.03 µM, first compound 0.0316 µM
[14] = second compound 0.03 µM, first compound 0.1 µM
[15] = second compound 0.03 µM, first compound 0.316 µM
[16] = second compound 0.03 µM, first compound 1 µM
[17] = second compound 0.03 µM, first compound 3.16 µM
[18] = second compound 0.03 µM, first compound 10 µM
[19] = second compound 0.0949 µM, first compound 0.0316 µM
[20] = second compound 0.0949 µM, first compound 0.1 µM
[21] = second compound 0.0949 µM, first compound 0.316 µM
[22] = second compound 0.0949 µM, first compound 1 µM
[23] = second compound 0.0949 µM, first compound 3.16 µM
[24] = second compound 0.0949 µM, first compound 10 µM
[25] = second compound 0.3 µM, first compound 0.0316 µM
[26] = second compound 0.3 µM, first compound 0.1 µM
[27] = second compound 0.3 µM, first compound 0.316 µM
[28] = second compound 0.3 µM, first compound 1 µM
[29] = second compound 0.3 µM, first compound 3.16 µM
[30] = second compound 0.3 µM, first compound 10 µM

| Structure (SMILES) | IC50 (second compound 0.003 µM) [nM] | IC50 (second compound 0.00949 µM) [nM] | IC50 (second compound 0.03 µM) [nM] | IC50 (second compound 0.0949 µM) [nM] | IC50 (second compound 0.3 µM) [nM] | viability, T/C [1] [%] | viability, T/C [2] [%] | viability, T/C [3] [%] | viability, T/C [4] [%] | viability, T/C [5] [%] | viability, T/C [6] [%] | viability, T/C [7] [%] | viability, T/C [8] [%] | viability, T/C [9] [%] | viability, T/C [10] [%] | viability, T/C [11] [%] | viability, T/C [12] [%] | viability, T/C [13] [%] | viability, T/C [14] [%] | viability, T/C [15] [%] | further results |
| --- | --- | --- | --- | --- | --- | --- | --- | --- | --- | --- | --- | --- | --- | --- | --- | --- | --- | --- | --- | --- | --- |
| CC1COCCN1c1cc(-c2ccnn2C)c2ccnc(-c3ccn[nH]3)c2n1 (stereo not given) + CC[C@@]1(O)C(=O)OCc2c1cc1n(c2=O)Cc2cc3c(CN(C)C)c(O)ccc3nc2-1 | < 31.6 | < 31.6 | < 31.6 | < 31.6 | < 31.6 | 38.2 | 17.3 | 13.4 | 13.5 | 15 | 15.1 | 16.6 | 11.1 | 9.94 | 10.2 | 12.7 | 14.6 | 12.9 | 11.1 | 10.6 | viability, T/C [16]: 10%; viability, T/C [17]: 11.1%; viability, T/C [18]: 12.1%; viability, T/C [19]: 10.7%; viability, T/C [20]: 8.92%; viability, T/C [21]: 8.64%; viability, T/C [22]: 8.17%; viability, T/C [23]: 8.68%; viability, T/C [24]: 9.11%; viability, T/C [25]: 6.09%; viability, T/C [26]: 5.5%; viability, T/C [27]: 5.49%; viability, T/C [28]: 4.45%; viability, T/C [29]: 4.16%; viability, T/C [30]: 3.75% |
| COc1cc(C)[nH]c(=O)c1CN1CCc2c(Cl)cc(C(OC)C3COC3)c(Cl)c2C1=O (stereo not given) + CC[C@@]1(O)C(=O)OCc2c1cc1n(c2=O)Cc2cc3c(CN(C)C)c(O)ccc3nc2-1 | 130 | < 31.6 | < 31.6 | < 31.6 | < 31.6 | 85.9 | 52.9 | 37.2 | 31.9 | 29.3 | 23.8 | 49.9 | 44.4 | 26.1 | 23.6 | 23.3 | 19.6 | 16 | 13.7 | 10.3 | viability, T/C [16]: 11.8%; viability, T/C [17]: 12%; viability, T/C [18]: 9.84%; viability, T/C [19]: 7.14%; viability, T/C [20]: 7.77%; viability, T/C [21]: 7.29%; viability, T/C [22]: 6.9%; viability, T/C [23]: 6.42%; viability, T/C [24]: 6.61%; viability, T/C [25]: 5.24%; viability, T/C [26]: 5.58%; viability, T/C [27]: 5.45%; viability, T/C [28]: 5.13%; viability, T/C [29]: 5.04%; viability, T/C [30]: 4.44% |
| Cc1cc(C)c(CNC(=O)c2cc(-c3ccc(CN4CCOCC4)cc3)cc3c2cnn3C2CCCC2)c(=O)[nH]1 + CC[C@@]1(O)C(=O)OCc2c1cc1n(c2=O)Cc2cc3c(CN(C)C)c(O)ccc3nc2-1 | 4210 | < 31.6 | < 31.6 | < 31.6 | < 31.6 | 79.7 | 81.4 | 75.1 | 75.1 | 58.2 | 24.3 | 47.1 | 39.4 | 32.9 | 33.2 | 22.1 | 14.2 | 13.4 | 12.7 | 11 | viability, T/C [16]: 9.58%; viability, T/C [17]: 7.81%; viability, T/C [18]: 7.38%; viability, T/C [19]: 7.91%; viability, T/C [20]: 8.43%; viability, T/C [21]: 7.6%; viability, T/C [22]: 6.51%; viability, T/C [23]: 5.89%; viability, T/C [24]: 5.15%; viability, T/C [25]: 5.19%; viability, T/C [26]: 5.25%; viability, T/C [27]: 4.23%; viability, T/C [28]: 4.83%; viability, T/C [29]: 4.3%; viability, T/C [30]: 4.73% |
| [2H]c1nc(C)nc([2H])c1-c1cc(NC[C@@H](C)c2cccc3c(C(=O)NC)ccnc23)ncn1 + CC[C@@]1(O)C(=O)OCc2c1cc1n(c2=O)Cc2cc3c(CN(C)C)c(O)ccc3nc2-1 | > 10000 | < 31.6 | < 31.6 | < 31.6 | < 31.6 | 83.5 | 94.3 | 85.3 | 82.5 | 75.9 | 81 | 45.4 | 47.3 | 47.1 | 40.1 | 38.9 | 30.1 | 14.6 | 17.2 | 14 | viability, T/C [16]: 16.9%; viability, T/C [17]: 15.4%; viability, T/C [18]: 12.3%; viability, T/C [19]: 7.88%; viability, T/C [20]: 8.52%; viability, T/C [21]: 8.28%; viability, T/C [22]: 7.66%; viability, T/C [23]: 7.94%; viability, T/C [24]: 6.94%; viability, T/C [25]: 4.71%; viability, T/C [26]: 4.82%; viability, T/C [27]: 5.34%; viability, T/C [28]: 5%; viability, T/C [29]: 4.69%; viability, T/C [30]: 5.48% |

Source: PubChem BioAssay AID1845203 (Molecular Pharmacology Branch, DTP, NCI, 2023)
